Data from PMC7463460, “Structure and Antiparasitic Activity Relationship of Alkylphosphocholine Analogues against Leishmania donovani” (Microorganisms, 2020).
Values joined by “and” are separate entries in the source; they are usually repeats but may differ in a detail not shown here. Equal entries are not always repeated.

Columns and labels:
Assay type in all cases: cell-based, Leishmania donovani
[1] = test system: L. donovani LV82 intracellular amastigotes; test: Intracellular amastigote assay in bone-marrow-derived macrophages, strain LV82; details: for IC50 / IC90: Leishmania donovani, Macrophage; for IC50: in Mus musculus, 72 h; for IC90: LV82; for Selectivity Index (SI50): macrophage CC50 / LV82 intracellular amastigote IC50
Method: In the macrophage studies, the method described in previous studies was used as follows. […] It is possible that intracellular macrophage parasites could have been at different developmental stages at 24 h post-infection. […] Therefore, we assumed that the effect of compounds on the amastigote stage rather than the promastigotes stage was determined in in vitro macrophage studies.
The plate was incubated for a further 24 h, the medium removed, and each well washed with PBS to eliminate non-internalized parasites, which were monitored microscopically. […] Wells with macrophage and with no drug or promastigotes added were used in control experiments.
(§1) Luciferin solution (1 µg/mL in 20 µL medium without FCS) was added to the appropriate wells of the 96-well plate at the end of the experiment and the amount of light emitted/well was measured using a luminometer (Biotek Synergy HT, relative light units) using a wavelength/bandwidth of 440/40 nm, or IVIS® imaging (Spectrum Living Image system®, total flux, photons/sec).
(§2) The effect of drug treatment on parasite survival was determined by calculating the mean suppression in the light emitted from the drug-treated experimental sample compared to the mean control value and used to calculate the IC50 using Grafit® software (version 5.0, Erithacus Software, East Grinstead, West Sussex, UK). The effect of drug alone on the viability of uninfected macrophages was determined using the same experimental protocol above, but cell viability was determined using an alamar blue colorimetric assay. […] The effect of drug treatment on cell survival, which correlates with the magnitude of dye reduction, was expressed as percentage viability (or alamar blue reduction) and determined using the formula provided in the manufacturer’s protocol % alamar blue reduction=(εoxλ)(Aλ1)−(εoxλ1)(Aλ2)/(εredλ1)(A^′λ2)−(εredλ2)(A^′λ1)x100

[2] = test system: L. donovani 087/11 Milt-Sb-intermediate intracellular amastigotes; test: Intracellular amastigote assay, Milt-resistant 087/11; details: for IC50: Leishmania donovani, read-out: Mean IC50 Value Amastigotes; for Cross-Resistance Index (CRI50) Amast / Selectivity Index (SI50): strain 087/11, Milt-Sb-intermediate; for Selectivity Index (SI50): macrophage CC50 / amastigote IC50
Text: (§3) L. donovani cloned strains with different Sb susceptibility backgrounds were derived from isolates obtained from VL patients at the B.P. Koirala Institute of Health Sciences, Dharan, Nepal: MHOM/NP/02/BPK282/0cl4 (Sb sensitive, Sb-S). MHOM/NP/02/BPK087/0cl11 (Sb intermediate, Sb-I) and MHOM/NP/02/BPK275/0cl18 (Sb resistance, Sb-R [13]). In addition, Milt-resistant parasites raised against these three Sb sensitivity backgrounds and the Sb-sensitive strain (MHOM/ET/67:LV82) was also used in studies. Luciferase expressing promastigotes for the LV82 and Nepalese strains were prepared using previously published methods and the integrative construct (a gift from Dr D.F. Smith), designated pGL1313, contained pSSU-int fragments to facilitate integration into the ribosomal RNA locus of Leishmania.
(§4) In the macrophage studies, the method described in previous studies was used as follows. Briefly, bone-marrow-derived BALB/c macrophages (1–2 × 10^5) in 100 µL complete RPMI 1640 medium were added to the wells of a 96 well plate and left to adhere for 24 h at 37 °C, 5% CO₂/95% air. The medium was removed and 100 µL of the appropriate L. donovani luciferase-expressing promastigotes line (parasite: host cell ratio 1:10, 1:20 or 1:40) was added to each well, the ratio used reflected the infectivity of the strain and ensured that control data gave a bioluminescent signal within the same range. […] The variability in infectivity complicates strain to strain comparisons, but we decided to focus on achieving good infection levels in controls so that the effect of drug treatment could be determined. It is possible that intracellular macrophage parasites could have been at different developmental stages at 24 h post-infection. […] Therefore, we assumed that the effect of compounds on the amastigote stage rather than the promastigotes stage was determined in in vitro macrophage studies.
(§5) The plate was incubated for a further 24 h, the medium removed, and each well washed with PBS to eliminate non-internalized parasites, which were monitored microscopically. When the wells were devoid of external parasites, 100 µL of the medium alone (control) or appropriate APC compound was then added (0.01–0.197 µg/mL, n = 3/treatment). […]. All plates were incubated for 72 h at 37 °C, 5% CO₂/95% air. Wells with macrophage and with no drug or promastigotes added were used in control experiments.
as §1
(§6) The effect of drug treatment on parasite survival was determined by calculating the mean suppression in the light emitted from the drug-treated experimental sample compared to the mean control value and used to calculate the IC50 using Grafit® software (version 5.0, Erithacus Software, East Grinstead, West Sussex, UK). The effect of drug alone on the viability of uninfected macrophages was determined using the same experimental protocol above, but cell viability was determined using an alamar blue colorimetric assay. At the end of the incubation period, cells’ 10 µL resazurin solution (0.02% w/v) was added to control and drug treated cells and the absorbance of samples was read at 575 and 595 nm. The effect of drug treatment on cell survival, which correlates with the magnitude of dye reduction, was expressed as percentage viability (or alamar blue reduction) and determined using the formula provided in the manufacturer’s protocol % alamar blue reduction=(εoxλ)(Aλ1)−(εoxλ1)(Aλ2)/(εredλ1)(A^′λ2)−(εredλ2)(A^′λ1)x100 […]

[3] = test system: L. donovani 087/11 (Sb-intermediate) promastigotes; test: microbe, parasite or virus in culture; details: for IC50: Leishmania donovani, read-out: Mean IC50 Promastigotes; for Promast: Amast Ratio: strain 087/11, Sb-intermediate; for Cross-Resistance Index (CRI50) Promast: strain 087/11, Sb-intermediate vs Sb-S
Text: as §3, §1, §2
Cross resistance (CRI50) indexes were determined as Cross selectivity indices (CRI)=mean IC50 value for the relevant drug−resistant strain i.e., Sb−I or Sb−R / mean IC50 value drug−sensitive strain Sb−S

[4] = test system: L. donovani 275/18 Milt-Sb-resistant intracellular amastigotes; test: Intracellular amastigote assay, Milt-resistant 275/18; details: for IC50: Leishmania donovani, read-out: Mean IC50 Value Amastigotes; for Selectivity Index (SI50): macrophage CC50 / amastigote IC50
Text: as §3, §4, §5, §1, §6

[5] = LV82, intracellular in BALB/c macrophages, 3 days, 37 °C
[6] = strain 275/18, Milt-Sb-resistant

SMILES	Amastigote mean IC50 [1, 5] [µg/mL]	IC50 [1, 5]	IC90 [1] [µg/mL]	fold more active than Milt (APC16) ([1]; intracellular amastigotes) [fold]	Selectivity Index (SI50) [1]	IC50 [2]	Cross-Resistance Index (CRI50) Amast [2]	Selectivity Index (SI50) [2]	IC50 [3]	Promast: Amast Ratio [3]	Cross-Resistance Index (CRI50) Promast [3]	IC50 [4]	Selectivity Index (SI50) [4, 6]	Cross-Resistance Index (CRI50) Amast [4, 6]
CCCCCCCCCCCCOP(=O)([O-])OCC[N+](C)(C)C [APC12, dodecylphosphocholine]	0.01 ± 0.00	0.009 µg/mL and 26 nM	0.081 ± 0.01	4	3870.77	6.17 µg/mL and 17.6 µM	77.13	5.73	0.42 µg/mL and 1.19 µM	2.11	0.76	4.45 µg/mL and 12.7 µM	7.95	
CCCCCCCCCCCCCCOP(=O)([O-])OCC[N+](C)(C)C [APC14, tetradecylphosphocholine]		0.03 µg/mL and 66 nM			1632.58	10 µg/mL and 26.4 µM	> 5.95	4.08	0.21 µg/mL and 550 nM	1.05	0.48	34.9 µg/mL and 91.8 µM	1.17	> 20.144
CCCCCCCCCCCCCCCCOP(=O)([O-])OCC[N+](C)(C)C [APC16, hexadecylphosphocholine, reference compound]		0.1 µg/mL and 250 nM	0.9 ± 0.016			12.7 µg/mL and 31 µM				5.15		> 61.4 µg/mL and > 151 µM		
